Measurements from the supplement of paper PMC11451515.

Experiments:
Details in all cases: 48 h
SEM cells [1] = assay: AUC of viability dose-response curve (% viability x log10 dose units); higher = less sensitive
Summary of the method: (§1)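 Area under the curve was integrated by trapezoidal rule from a log-logistic fit of normalised viability, with curves exceeding full viability scaled and quality-control failures removed. The fit had four parameters over log10 doses. Viability came from CellTiter-Glo One luminescence, normalised per plate to DMSO and cell-free wells, after leukemia cells adapted to each medium (500 or 1000 cells/well, 1536-well plates) were exposed to library compounds in DMSO for 48 h at 37°C. The 11 threefold doses ran from 47 μM to 0.79 nM.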

P12-Ichikawa [2] = assay: as above
Summary of the method: as §1

NOMO1 = assay: as above
Summary of the method: as §1

SEM cells [3] = assay: cell viability relative to DMSO control; higher = less cytotoxic
Summary of the method: (§2)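 Viability is a per-plate percentage relative to DMSO wells, with cell-free wells as background. CellTiter-Glo One luminescence was read after 48 h at 37°C on 1536-well plates (5 μl) of NOMO1 or SEM (500 cells/well) or P12-Ichikawa (1000 cells/well) leukemia cells. The cells had been adapted for at least four passages in each medium and pin-dosed with library compounds in DMSO from 47 μM to 0.79 nM in 11 threefold steps.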

P12-Ichikawa [4] = assay: as above
Summary of the method: as §2

CC(=O)NC[C@H]1CN(c2ccc(N3CCOCC3)c(F)c2)C(=O)O1
AUC of viability dose-response curve
Details | NOMO1 | P12-Ichikawa [2] | SEM cells [1]
HPLM + 10% dialyzed FBS | 415 | 465 | 475
RPMI 5 mM glucose + 10% FBS | 473 | 449 | 476
RPMI 5 mM glucose + 10% dialyzed FBS | 450 | 429 | 475

O=C(O)C1CCCN(CCC=C(c2ccccc2)c2ccccc2)C1 (configuration not stated)
AUC of viability dose-response curve
Details | NOMO1 | P12-Ichikawa [2] | SEM cells [1]
HPLM + 10% dialyzed FBS | 425 | 469 | 463
RPMI 5 mM glucose + 10% FBS | 453 | 459 | 462
RPMI 5 mM glucose + 10% dialyzed FBS | 465 | 474 | 464

CC(=O)Nc1sc2c(c1-c1nc3ccccc3s1)CNC2
AUC of viability dose-response curve
Details | NOMO1 | P12-Ichikawa [2] | SEM cells [1]
HPLM + 10% dialyzed FBS | 386 | 463 | 437
RPMI 5 mM glucose + 10% FBS | 462 | 452 | 443
RPMI 5 mM glucose + 10% dialyzed FBS | 384 | 453 | 439

CC1COC2=C3N1\C=C(C(O)=O)/C(=O)C3=CC(=C2N4CCN(C)CC4)F (configuration not stated)
cell viability [%], SEM cells [3]
Details | HPLM + 10% dialyzed FBS | RPMI 5 mM glucose + 10% FBS
0.000781 µM | 119 | 111
0.00234 µM | 128 | 124
0.00702 µM | 122 | 125
0.0211 µM | 122 | 136
0.0632 µM | 121 | 142
0.19 µM | 125 | 118
0.569 µM | 128 | 117
1.71 µM | 119 | 122
5.12 µM | 118 | 117
15.4 µM | 120 | 106
46.1 µM | 119 | 115

AUC of viability dose-response curve
Details | NOMO1 | P12-Ichikawa [2] | SEM cells [1]
HPLM + 10% dialyzed FBS | 459 | 463 | 470
RPMI 5 mM glucose + 10% FBS | 443 | 452 | 453
RPMI 5 mM glucose + 10% dialyzed FBS | 446 | 438 | 463

C[C@@H](N)c1ccc(C(=O)Nc2ccnc3[nH]ccc23)cc1
cell viability [%], SEM cells [3]
Details | HPLM + 10% dialyzed FBS | RPMI 5 mM glucose + 10% FBS
0.000781 µM | 99.4 | 115
0.00234 µM | 115 | 135
0.00702 µM | 122 | 124
0.0211 µM | 121 | 155
0.0632 µM | 121 | 145
0.19 µM | 144 | 140
0.569 µM | 136 | 130
1.71 µM | 118 | 139
5.12 µM | 118 | 114
15.4 µM | 105 | 86.7
46.1 µM | 40.7 | 52.5

AUC of viability dose-response curve
Details | NOMO1 | P12-Ichikawa [2] | SEM cells [1]
HPLM + 10% dialyzed FBS | 462 | 471 | 454
RPMI 5 mM glucose + 10% FBS | 455 | 461 | 437
RPMI 5 mM glucose + 10% dialyzed FBS | 455 | 466 | 455

CC(=O)OC\C1=C(\[N@]2[C@@H](SC1)[C@H](N)C2=O)C(O)=O
SEM cells [3], HPLM + 10% dialyzed FBS
Details | cell viability [%]
0.000781 µM | 104
0.00234 µM | 111
0.00702 µM | 119
0.0211 µM | 120
0.0632 µM | 123
0.19 µM | 141
0.569 µM | 129
1.71 µM | 138
5.12 µM | 125
15.4 µM | 126
46.1 µM | 97.1

AUC of viability dose-response curve
Details | NOMO1 | P12-Ichikawa [2] | SEM cells [1]
HPLM + 10% dialyzed FBS | 330 | 346 | 462
RPMI 5 mM glucose + 10% FBS | 306 | 348 | 473
RPMI 5 mM glucose + 10% dialyzed FBS | 324 | 370 | 470

Cl.Nc1ccn([C@@H]2O[C@H](CO)[C@@H](O)C2(F)F)c(=O)n1
AUC of viability dose-response curve
Details | NOMO1 | P12-Ichikawa [2] | SEM cells [1]
HPLM + 10% dialyzed FBS | 263 | 230 | 179
RPMI 5 mM glucose + 10% FBS | 243 | 223 | 175
RPMI 5 mM glucose + 10% dialyzed FBS | 248 | 212 | 141

CN(C)c1ccc(Nc2nc(N)n(C(=O)c3c(F)cccc3F)n2)cc1
cell viability [%]
Details | HPLM + 10% dialyzed FBS | RPMI 5 mM glucose + 10% FBS | RPMI 5 mM glucose + 10% dialyzed FBS
P12-Ichikawa [4], 0.000781 µM | 106 | 122 | 114
P12-Ichikawa [4], 0.00234 µM | 115 | 116 | 115
P12-Ichikawa [4], 0.00702 µM | 125 | 115 | 120
P12-Ichikawa [4], 0.0211 µM | 79.5 | 70 | 72.4
P12-Ichikawa [4], 0.0632 µM | 122 | 132 | 125
P12-Ichikawa [4], 0.19 µM | 127 | 126 | 125
P12-Ichikawa [4], 0.569 µM | 121 | 130 | 118
P12-Ichikawa [4], 1.71 µM | 117 | 137 | 126
P12-Ichikawa [4], 5.12 µM | 114 | 114 | 120
P12-Ichikawa [4], 15.4 µM | 29.1 | 28.8 | 41.2
P12-Ichikawa [4], 46.1 µM | 88.2 | 60.2 | 68.3
SEM cells [3], 0.000781 µM | 105 | 108 | 102
SEM cells [3], 0.00234 µM | 118 | 110 | 118
SEM cells [3], 0.00702 µM | 110 | 123 | 117
SEM cells [3], 0.0211 µM | 92.2 | 96.8 | 76.3
SEM cells [3], 0.0632 µM | 111 | 118 | 142
SEM cells [3], 0.19 µM | 117 | 120 | 127
SEM cells [3], 0.569 µM | 97.1 | 90.2 | 95.5
SEM cells [3], 1.71 µM | 69 | 42.7 | 61.2
SEM cells [3], 5.12 µM | 43.9 | 32.3 | 34.8
SEM cells [3], 15.4 µM | 64.7 | 38 | 40.5
SEM cells [3], 46.1 µM | 56.1 | 48.7 | 40.6

AUC of viability dose-response curve
Details | HPLM + 10% dialyzed FBS | RPMI 5 mM glucose + 10% FBS | RPMI 5 mM glucose + 10% dialyzed FBS
NOMO1 | 452 | 465 | 459
SEM cells [1] | 396 | 361 | 370

CN1CC(=O)\N=C1\NC(=O)NC2=CC(=CC=C2)Cl
AUC of viability dose-response curve
Details | NOMO1 | P12-Ichikawa [2] | SEM cells [1]
HPLM + 10% dialyzed FBS | 452 | 442 | 448
RPMI 5 mM glucose + 10% FBS | 453 | 459 | 471
RPMI 5 mM glucose + 10% dialyzed FBS | 468 | 463 | 457

CC[C@@]1([C@@H]2O[C@@H]([C@H]3O[C@@](O)(CO)[C@H](C)C[C@@H]3C)C[C@@H]2C)CC[C@H]([C@]2(C)CC[C@]3(C[C@H](O)[C@@H](C)[C@@H]([C@@H](C)[C@@H](OC)[C@H](C)C(=O)[O-])O3)O2)O1
AUC of viability dose-response curve
Details | NOMO1 | P12-Ichikawa [2] | SEM cells [1]
HPLM + 10% dialyzed FBS | 381 | 375 | 336
RPMI 5 mM glucose + 10% FBS | 409 | 350 | 324
RPMI 5 mM glucose + 10% dialyzed FBS | 393 | 340 | 343

CN(C)C/C=C/C(=O)Nc1cc2c(Nc3ccc(F)c(Cl)c3)ncnc2cc1O[C@H]1CCOC1
AUC of viability dose-response curve
Details | NOMO1 | P12-Ichikawa [2] | SEM cells [1]
HPLM + 10% dialyzed FBS | 339 | 337 | 320
RPMI 5 mM glucose + 10% FBS | 342 | 338 | 304
RPMI 5 mM glucose + 10% dialyzed FBS | 345 | 347 | 324

Nc1nc(F)nc2c1ncn2[C@@H]1O[C@H](CO)[C@@H](O)[C@H]1O
SEM cells [3], RPMI 5 mM glucose + 10% FBS
Details | cell viability [%]
0.000781 µM | 114
0.00234 µM | 119
0.00702 µM | 125
0.0211 µM | 141
0.0632 µM | 115
0.19 µM | 13.2
0.569 µM | 10.9
1.71 µM | 7.49
5.12 µM | 6.64
15.4 µM | 6.09
46.1 µM | 6.22

AUC of viability dose-response curve
Details | NOMO1 | P12-Ichikawa [2] | SEM cells [1]
HPLM + 10% dialyzed FBS | 283 | 293 | 228
RPMI 5 mM glucose + 10% FBS | 291 | 293 | 229
RPMI 5 mM glucose + 10% dialyzed FBS | 279 | 282 | 217
